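How tested: cells in 96-well plates exposed to compound for 48 hours at five concentrations. GI50 is the concentration that inhibits growth by half. TGI is the concentration that stops growth completely.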
Columns and labels:
Assay in all cases: inhibition of tumour cell growth, NCI panel, 48 h
[1] = system: A549 NSCLC
[2] = system: HCT-15 colon
[3] = system: HT29 colon
[4] = system: MALME-3M melanoma
[5] = system: MCF7 breast
[6] = system: MDA-MB-435
[7] = system: OVCAR-3 ovarian
[8] = system: SF-295 CNS
[9] = system: SK-MEL-5 melanoma
[10] = system: SN12C renal

| SMILES | TGI [1] | TGI [2] | TGI [3] | TGI [4] | TGI [5] | TGI [6] | TGI [7] | TGI [8] | TGI [9] | TGI [10] | GI50 [1] | GI50 [2] | GI50 [3] | GI50 [4] | GI50 [5] | GI50 [6] | GI50 [7] | GI50 [8] | GI50 [9] | GI50 [10] |
| --- | --- | --- | --- | --- | --- | --- | --- | --- | --- | --- | --- | --- | --- | --- | --- | --- | --- | --- | --- | --- |
| COC(=O)C(=O)CC(=O)c1cccc(OC)c1 | > 100 µM | > 100 µM | > 100 µM | > 100 µM | > 100 µM | > 100 µM | > 100 µM | > 100 µM | > 100 µM | > 100 µM |  |  |  |  |  |  |  |  |  |  |
| NC(N)=N/N=C(\N=Nc1ccccc1)c1ccc(Cl)cc1 | 18.5 µM | 14.9 µM | 5.39 µM | 17.2 µM | 14.2 µM | 4.36 µM | 7.24 µM | 6.39 µM | 14.8 µM | 22.1 µM | 4.25 µM | 3.02 µM | 2.29 µM | 4.68 µM | 2.43 µM | 1.7 µM | 2.8 µM | 1.82 µM | 3.73 µM | 4.65 µM |
| C=C1C(=O)OC2C1CC(OC(C)=O)/C(C)=C/CCC1(C)OC21 (stereo not drawn) | > 100 µM | > 100 µM | > 100 µM | > 100 µM | > 100 µM | > 100 µM | > 100 µM | > 100 µM | > 100 µM | > 100 µM |  |  |  |  |  |  |  |  |  |  |
| CNCCn1c(=O)c2cc(OC)c(OC)cc2c2cnc3cc4c(cc3c21)OCO4 | 1.31 µM | 1.55 µM | 0.11 µM | 5.75 µM | 1.14 µM | 2.02 µM | 2.02 µM | < 0.0155 µM | 0.0254 µM | 1.25 µM | < 0.01 µM | 0.0359 µM | 0.0119 µM | 0.05 µM | < 0.01 µM | 0.0189 µM | 0.0393 µM | < 0.01 µM | 0.01 µM | < 0.01 µM |
| CCc1nc(Cl)c(Cl)c(Cl)n1 | > 100 µM | > 100 µM | > 100 µM | > 100 µM | > 100 µM | > 100 µM | > 100 µM | > 100 µM | > 100 µM | > 100 µM |  |  |  |  |  |  |  |  |  |  |
| O=C(Nc1ccc(Cl)cc1)Nc1nccs1 | > 100 µM | > 100 µM | 27.1 µM | 54.1 µM | > 100 µM | 0.585 µM | 7.85 µM | 34.7 µM | 15.3 µM | > 100 µM | 0.775 µM | 0.46 µM | 0.511 µM | 3.37 µM | 0.439 µM | 0.207 µM | 1.95 µM | 2.73 µM | 0.514 µM | 5.22 µM |
| COc1ccc(-c2nn(-c3cccc(Cl)c3)cc2-c2nc(N)[nH]c(=O)c2C#N)cc1 | 50.8 µM | > 100 µM | 20 µM | 40.6 µM | 28.5 µM | 5.48 µM | 10 µM | 9.23 µM | 15.9 µM | > 100 µM | 5.13 µM | 5.07 µM | 4.29 µM | 5.83 µM | 3.54 µM | 2.16 µM | 3.38 µM | 2.36 µM | 4.07 µM | 6.41 µM |
| COc1cc(C(=O)O[C@H](C(N)=O)[C@]2(C)CO2)c2cccc(C)c2c1 | > 100 µM | 2.82 µM |  | 0.646 µM | > 100 µM | 0.126 µM | 8.21 µM | 1.84 µM | 0.0522 µM | 0.245 µM |  | 0.282 µM | < 0.0418 µM | 0.13 µM | < 0.0367 µM | < 0.0215 µM | < 0.0317 µM | < 0.0417 µM | < 0.0158 µM | < 0.01 µM |
| CNC(C)[C@H]1CCC2C3CC=C4C(=O)[C@@H](NC(=O)C=C(C)C)CC[C@]4(C)C3CC[C@@]21C (stereo partly drawn) | 6.82 µM | 2.89 µM | 1.59 µM | 3.47 µM | 5.98 µM | 3.27 µM | 6.04 µM | 4.41 µM | 2.39 µM | 10.5 µM | 2.46 µM | 1.14 µM | 0.358 µM | 1.64 µM | 1.7 µM | 1.36 µM | 1.82 µM | 1.63 µM | 1.14 µM | 2.46 µM |
| NCCCOc1cc(Cl)ccc1NC(=O)c1cc2ccccc2cc1OCCCN | 3.06 µM | 3.2 µM | 4.16 µM | 3.59 µM | 3.07 µM | 3.59 µM | 2.65 µM | 3.42 µM | 2.81 µM | 3.23 µM | 1.54 µM | 1.5 µM | 1.62 µM | 1.65 µM | 1.62 µM | 1.8 µM | 1.32 µM | 1.66 µM | 1.47 µM | 1.58 µM |
